This is an account of results in patent US8546381B2, “Bridged heterocyclic compounds and methods of use” (Medivation Technologies, Inc., priority 2008, dated 2013).

SMILES strings stand for the structures.

The target of assay [1] is T1, human recombinant serotonin (5-Hydroxytryptamine) 5-HT2A receptor (Homo sapiens, UniProt P28223).
T1 construct: expressed in transfected cells; host or cells: CHO-K1 cells
In words: Serotonin 5-HT2A radioligand binding ([3H]Ketanserin). The settings on record: read-out: Serotonin 5-HT2A, inhibition of ligand binding (1 μM). In short, it runs like this:
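CHO-K1 membranes with human 5-HT2A in 50 mM Tris-HCl pH 7.4, incubated with 0.5 nM [3H]Ketanserin for 60 min at 25 °C; non-specific binding defined with 1 μM mianserin. Bound ligand measured by filtration and counting.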

In assay [2] the target is T2, human recombinant histamine H1 receptor (Homo sapiens, UniProt P35367).
T2 construct: expressed in transfected cells; host or cells: CHO cells
In words: Histamine H1 radioligand binding ([3H]Pyrilamine). The settings on record: compound at 1 μM; inhibition of specific [3H]Pyrilamine binding; read-out: Histamine Binding (1 μM) H1, Percentage Inhibition. In short, it runs like this: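 Membranes from CHO cells expressing human H1 receptor were incubated with 1.2 nM [3H]pyrilamine for 180 min at 25° C in Tris-HCl buffer pH 7.4. Non-specific binding defined with 1 μM pyrilamine; compounds tested at 1 μM or lower in 1% DMSO. Results are given as % inhibition of specific binding.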

Assay [3] addresses T3, human recombinant serotonin (5-Hydroxytryptamine) 5-HT2C receptor (Homo sapiens, UniProt P28335).
T3 construct: expressed in transfected cells; host or cells: CHO-K1 cells
T3 sequence (P28335 33-458): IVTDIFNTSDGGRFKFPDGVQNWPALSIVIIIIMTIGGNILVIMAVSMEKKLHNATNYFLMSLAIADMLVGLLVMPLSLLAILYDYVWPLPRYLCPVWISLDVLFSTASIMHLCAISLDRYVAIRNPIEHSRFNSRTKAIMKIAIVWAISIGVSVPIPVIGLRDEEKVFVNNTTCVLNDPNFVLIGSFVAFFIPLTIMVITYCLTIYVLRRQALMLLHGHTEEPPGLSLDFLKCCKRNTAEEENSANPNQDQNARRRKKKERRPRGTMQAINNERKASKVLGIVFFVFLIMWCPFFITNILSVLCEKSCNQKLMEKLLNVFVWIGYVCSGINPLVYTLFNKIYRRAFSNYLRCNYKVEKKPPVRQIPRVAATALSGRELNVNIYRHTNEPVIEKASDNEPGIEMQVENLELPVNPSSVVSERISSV
In words: Serotonin 5-HT2C radioligand binding ([3H]Mesulergine). The settings on record: read-out: Serotonin 5-HT2C, inhibition of ligand binding (1 μM). The procedure, abridged: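 Membranes from CHO-K1 cells expressing the human receptor were incubated 60 min at 25 °C with 1 nM [3H]mesulergine in 50 mM Tris-HCl pH 7.4 with ascorbic acid and 10 μM pargyline. Compounds were tested at 1 μM or lower in 1% DMSO, with 1 μM mianserin defining non-specific binding. After filtration, values are % inhibition of specific binding.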

The target of assay [4] is T4, human recombinant histamine H2 receptor (Homo sapiens, UniProt P25021).
T4 construct: expressed in transfected cells; host or cells: CHO-K1 cells
The experiment in a line: Histamine H2 radioligand binding ([125I]Aminopotentidine). Conditions: compound at 1 μM; inhibition of specific [125I]Aminopotentidine binding; read-out: Histamine Binding (1 μM) H2, Percentage Inhibition. In short, it runs like this: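 CHO-K1 membranes expressing the receptor were incubated in 50 mM phosphate buffer, pH 7.4, with 0.1 nM [125I]aminopotentidine for 120 min at 25°C; 3 μM tiotidine defined non-specific binding.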

T1 sequence (P28223 whole entry): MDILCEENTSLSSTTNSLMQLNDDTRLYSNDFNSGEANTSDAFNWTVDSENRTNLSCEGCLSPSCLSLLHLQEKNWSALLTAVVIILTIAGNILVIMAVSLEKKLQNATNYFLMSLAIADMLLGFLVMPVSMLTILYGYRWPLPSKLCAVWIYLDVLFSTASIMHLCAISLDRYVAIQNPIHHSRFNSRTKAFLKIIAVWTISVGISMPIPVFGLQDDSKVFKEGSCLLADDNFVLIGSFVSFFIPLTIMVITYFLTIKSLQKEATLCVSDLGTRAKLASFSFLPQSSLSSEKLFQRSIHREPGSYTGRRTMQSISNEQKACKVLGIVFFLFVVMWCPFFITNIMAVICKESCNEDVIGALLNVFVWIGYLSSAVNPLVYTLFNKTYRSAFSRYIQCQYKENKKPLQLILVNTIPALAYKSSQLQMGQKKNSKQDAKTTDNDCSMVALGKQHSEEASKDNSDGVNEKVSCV
T4 sequence (P25021 whole entry): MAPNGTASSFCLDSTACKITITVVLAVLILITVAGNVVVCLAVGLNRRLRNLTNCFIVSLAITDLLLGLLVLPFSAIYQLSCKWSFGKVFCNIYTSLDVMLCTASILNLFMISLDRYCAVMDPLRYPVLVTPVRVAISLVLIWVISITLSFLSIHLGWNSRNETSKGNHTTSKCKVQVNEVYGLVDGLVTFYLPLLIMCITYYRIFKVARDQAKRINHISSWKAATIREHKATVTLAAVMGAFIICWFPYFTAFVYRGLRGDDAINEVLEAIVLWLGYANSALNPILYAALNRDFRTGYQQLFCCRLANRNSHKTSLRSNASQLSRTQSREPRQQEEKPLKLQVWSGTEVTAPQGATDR
T2 sequence (P35367 whole entry): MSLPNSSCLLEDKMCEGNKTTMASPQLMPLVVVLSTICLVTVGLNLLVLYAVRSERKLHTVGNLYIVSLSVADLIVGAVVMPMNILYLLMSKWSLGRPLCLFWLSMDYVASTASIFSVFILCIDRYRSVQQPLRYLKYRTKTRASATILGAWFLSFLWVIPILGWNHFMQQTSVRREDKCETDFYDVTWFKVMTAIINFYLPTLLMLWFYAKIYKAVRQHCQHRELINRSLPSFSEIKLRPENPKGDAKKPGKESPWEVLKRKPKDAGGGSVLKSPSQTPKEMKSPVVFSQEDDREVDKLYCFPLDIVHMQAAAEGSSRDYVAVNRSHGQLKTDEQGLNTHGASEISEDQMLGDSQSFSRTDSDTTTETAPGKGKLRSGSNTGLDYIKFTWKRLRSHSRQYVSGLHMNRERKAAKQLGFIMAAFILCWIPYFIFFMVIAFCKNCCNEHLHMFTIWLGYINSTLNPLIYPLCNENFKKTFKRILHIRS

For orientation: inhibition means the drop in the measured response relative to a control, in per cent. Regarding `CN1[C@@H]2CC[C@H]1c1c(n(CCc3ccc(C(F)(F)F)nc3)c3ccccc13)C2` [Compound 97], the inhibition at 1 µM in assay [1] was 25%; in assay [2], 26%; in assay [3], 97%; in assay [4], 11%.

Turning to `CN1[C@@H]2CC[C@H]1c1c(n(CC(C)(O)c3ccc(F)cc3)c3ccccc13)C2` (some centres unmarked) [Compound 99], the inhibition at 1 µM in assay [1] is 73%; in assay [2], 21%; in assay [3], 75%; in assay [4], 6%.

Take `CN1[C@@H]2CC[C@H]1c1c(n(CC(=O)N3CCCCC3)c3ccccc13)C2` [Compound 101]: the inhibition at 1 µM amounted to 93% in assay [1], 48% in assay [2], 94% in assay [3] and 19% in assay [4].

Take `Cc1ccc(CCn2c3c(c4ccccc42)[C@@H]2CC[C@H](C3)N2C)cn1` [Compound 102]: the inhibition at 1 µM was 11% in assay [1], 52% in assay [2], -6% in assay [3] and 3% in assay [4].

For the compound `Cc1ccc2c(c1)c1c(n2CCC#N)CC2CCC1N2C` (centres unmarked) [Compound 103], the inhibition at 1 µM in assay [1] was determined as 13%; in assay [2] it was 85%; in assay [3], 33%; in assay [4] it was 1%.

For `CN1C2CCC1c1c(n(CCC#N)c3ccc(Cl)cc13)C2` (centres unmarked) [Compound 107], the inhibition at 1 µM was 5% in assay [1], 72% in assay [2], 25% in assay [3] and -4% in assay [4].

Take `CN1C2CCC1c1c(n(CC(=O)c3ccccc3)c3ccc(Cl)cc13)C2` (centres unmarked) [Compound 110]: the inhibition at 1 µM amounted to 83% in assay [1], 36% in assay [2], 62% in assay [3] and 27% in assay [4].

For the compound `CN1C2CCC1c1c(n(CC(=O)c3ccc(Cl)cc3)c3ccc(Cl)cc13)C2` (centres unmarked) [Compound 111], the inhibition at 1 µM in assay [1] stood at 94%; in assay [2], 66%; in assay [3], 81%; in assay [4], 33%.

For the compound `Cc1ccc2c(c1)c1c(n2CCc2nc(-c3ccccc3)cs2)CC2CCC1N2C` (centres unmarked) [Compound 114], the inhibition at 1 µM in assay [1] was 88%; in assay [2], 93%; in assay [3], 59%; in assay [4] it was 10%.

Regarding `C/C(=C\n1c2c(c3cc(C)ccc31)C1CCC(C2)N1C)c1ccc(Cl)cc1` (centres unmarked) [Compound 116], the inhibition at 1 µM in assay [1] is 90%; in assay [2], 23%; in assay [3] it was 97%; in assay [4], 81%.

In the case of `C/C(=C/n1c2c(c3ccccc31)[C@@H]1CC[C@H](C2)N1C)c1ccc(F)cc1` [Compound 121], the inhibition at 1 µM stood at 98% in assay [1], 17% in assay [2], 88% in assay [3] and 21% in assay [4].

Take `C/C(=C\n1c2c(c3cc(Cl)ccc31)C1CCC(C2)N1C)c1ccc(F)cc1` (centres unmarked) [Compound 123]: the inhibition at 1 µM in assay [1] turned out to be 97%; in assay [2], 62%; in assay [3] it was 95%; in assay [4], 93%.

As for `C/C(=C\n1c2c(c3cc(C)ccc31)C1CCC(C2)N1C)c1ccc(F)cc1` (centres unmarked) [Compound 124], the inhibition at 1 µM amounted to 97% in assay [1], 31% in assay [2], 86% in assay [3] and 79% in assay [4].

In the case of `C/C(=C\n1c2c(c3cc(Cl)ccc31)C1CCC(C2)N1C)c1ccc(Cl)cc1` (centres unmarked) [Compound 125], the inhibition at 1 µM in assay [1] came to 101%; in assay [2], 82%; in assay [3], 99%; in assay [4], 96%.

In the case of `COc1ccc(/C(C)=C/n2c3c(c4cc(Cl)ccc42)C2CCC(C3)N2C)cc1F` (centres unmarked) [Compound 136], the inhibition at 1 µM in assay [1] is 99%; in assay [2] it was 69%; in assay [3] it was 100%; in assay [4], 100%.

In the case of `CN1C2CCC1c1c(n(C#Cc3ccc(F)cc3)c3ccc(Cl)cc13)C2` (centres unmarked) [Compound 138], the inhibition at 1 µM in assay [1] was 98%; in assay [2] it was 57%; in assay [3] it was 97%; in assay [4], 70%.

Regarding `Cc1ccc(C#Cn2c3c(c4cc(Cl)ccc42)C2CCC(C3)N2C)cn1` (centres unmarked) [Compound 139], the inhibition at 1 µM in assay [1] turned out to be 88%; in assay [2], 57%; in assay [3], 93%; in assay [4], 34%.

In the case of `Cc1ccc2c(c1)c1c(n2C#Cc2ccc(F)cc2)CC2CCC1N2C` (centres unmarked) [Compound 141], the inhibition at 1 µM was determined as 93% in assay [1], 2% in assay [2], 89% in assay [3] and 25% in assay [4].

On to `CN1C2CCC1c1c(n(C#Cc3ccc(Cl)cc3)c3ccc(Cl)cc13)C2` (centres unmarked) [Compound 142], for which the inhibition at 1 µM was found to be 98% in assay [1], 34% in assay [2], 100% in assay [3] and 71% in assay [4].

Consider `COc1ccc(C(C)(O)Cn2c3c(c4cc(Cl)ccc42)C2CCC(C3)N2C)cc1F` (centres unmarked) [Compound 160], for which the inhibition at 1 µM in assay [1] stood at 95%; in assay [2], 86%; in assay [3] it was 93%; in assay [4] it was 22%.

In the case of `COc1ccc(C(C)(O)Cn2c3c(c4cc(C)ccc42)C2CCC(C3)N2C)cc1F` (centres unmarked) [Compound 161], the inhibition at 1 µM in assay [1] stood at 96%; in assay [2] it was 84%; in assay [3] it was 92%; in assay [4] it was 20%.

Take `Cc1ccc2c(c1)c1c(n2C(=O)Cc2ccc(Cl)cc2)CC2CCC1N2C` (centres unmarked) [Compound 162]: the inhibition at 1 µM in assay [1] was determined as 92%; in assay [2], 0%; in assay [3], 93%; in assay [4], 47%.

Turning to `C/C(=C\n1c2c(c3cc(C)ccc31)C1CCC(C2)N1C)c1ccc(Cl)cc1Cl` (centres unmarked) [Compound 163], the inhibition at 1 µM in assay [1] was determined as 94%; in assay [2] it was 72%; in assay [3], 94%; in assay [4], 66%.
